Laboratory results published in paper PMC5306082, “Physiologically based kinetic modeling of the bioactivation of myristicin” (Archives of Toxicology, 2016).

Experiments:
[1] = Glucuronidation of 1′-hydroxymyristicin, male rat liver S9; assay type: in vitro ADME
Description: (§1) The kinetic constants for the metabolic conversion of 1′-hydroxymyristicin to 1′-hydroxymyristicin glucuronide (HMG) by both male rat and human liver fractions were determined as described previously for the related 1′-hydroxyalkenylbenzenes (Punt et al. [2008]; van den Berg et al. [2012]; Punt et al. [2009]; Martati et al. [2011], [2012]; Al-Subeihi et al. [2011], [2012]). Briefly, incubations contained (final concentrations) 10 mM of UDPGA and 0.5 mg/ml of male Sprague–Dawley or pooled gender human S9 protein in 0.2 M Tris–HCl (pH 7.4) containing 10 mM of MgCl2. To overcome enzyme latency and to obtain maximal glucuronidation activity, incubations containing S9 were pretreated on ice with 0.025 mg/ml alamethicin added from a 200 times concentrated stock dissolved in methanol (Fisher et al. [2000]; Lin and Wong [2002]). After 15 min of alamethicin treatment, samples were pre-incubated at 37 °C for 1 min, and reactions were subsequently started by adding 1′-hydroxymyristicin at final concentrations of 10 to 1200 μM. 1′-Hydroxymyristicin was added from 100 times concentrated stock solutions in DMSO. The reaction mixtures were incubated for 30 and 180 min for rat and human, respectively, and terminated by adding 25 µl (0.25 times the incubation volume) of ice-cold ACN. Blank incubations were carried out in the absence of the cofactor UDPGA. Experiments were performed in triplicate. The longer incubation time in human samples was required due to the lower rate of glucuronidation. The formation of 1′-hydroxymyristicin glucuronide was linear with time and the S9 protein concentration under the experimental conditions described. All samples were centrifuged for 5 min at 16,000×g, and the supernatant was stored at −20 °C until ultra-performance liquid chromatography (UPLC) analysis.
(§2) 1′-Hydroxymyristicin glucuronide was estimated based on the comparison of the peak area of the formed metabolite to the calibration curve of 1′-hydroxymyristicin at a wavelength of 210 nm. The flow rate was 0.6 ml/min. The gradient was made using a mixture of ACN and ultrapure water containing 0.1 % (v/v) TFA.

[2] = Glucuronidation of 1′-hydroxymyristicin, human liver S9; assay type: in vitro ADME
Description: as §1, §2

[3] = Oxidation of 1′-hydroxymyristicin to 1′-oxomyristicin, rat liver microsomes; assay type: in vitro ADME
Description: (§3) The kinetic constants for the enzymatic conversion of 1′-hydroxymyristicin to 1′-oxomyristicin were determined using incubation mixtures containing (final concentrations) 3 mM NAD^+, 2 mM GSH, and 1 mg/ml rat or human liver microsomes in 0.2 M Tris–HCl (pH 7.4). GSH was added to the incubation mixtures to trap the reactive 1′-oxo metabolite formed after oxidation of 1′-hydroxymyristicin. The level of GSH in the incubations was optimized in a previous study to obtain maximum scavenging of 1′-oxoestragole (Punt et al. [2009]). To this end, incubations were performed in the presence of increasing concentrations of GSH, ranging from 2 to 10 mM. […] Kinetic constants for this reaction in rat and human liver were derived by performing incubations with NAD^+ as a cofactor, given that in rat and human liver, NAD^+ is mainly present in an oxidized form with levels of NAD^+ being much higher than those of NADH. In a previous study, it was shown that the highest level of 1′-hydroxy alkenylbenzene oxidation occurs in incubations with microsomes in the presence of NAD^+ as cofactor. […] The enzyme responsible for the oxidation may be 17β-hydroxysteroid dehydrogenase type 2 (17β-HSD2) (Punt et al. [2010]). Prior to the addition of 1′-hydroxymyristicin at final concentrations ranging between 10 and 4000 μM to the incubation mixture from 100 times concentrated stock solutions in DMSO, samples were pre-incubated for 1 min at 37 °C. Reactions were terminated after 10 min of incubation at 37 °C by adding 25 μl (0.25 times the incubation volume) of ice-cold ACN. The formation of the GSH conjugate of 1′-oxomyristicin (GS-1′-oxomyristicin) was linear with time and microsomal protein concentration under the experimental conditions used. Blank incubations were performed without the cofactor NAD^+. Incubations were performed in triplicate. All samples were centrifuged for 5 min at 13,000×g, and the supernatant was stored at −20 °C until UPLC analysis.
(§4) Quantification of GS-1′-oxomyristicin was based on a calibration curve of the GSH adduct of the synthesized 1′-oxymyristicin made as previously described (van den Berg et al. [2012]; Punt et al. [2009]; Martati et al. [2011]; Al-Subeihi et al. [2011]). In short, a 60 μM concentration of the synthetic standard of 1′-oxomyristicin, dissolved in ACN, was incubated with different concentrations of GSH (i.e., 0–20 μM) in 0.2 M Tris–HCl (pH 7.4) for 6 h at 37 °C, resulting in full conversion of the GSH to GS-1′-oxymyristicin. Quantification was done by comparing the peak areas of the formed GS-1′-oxo metabolite in the incubation mixtures with peak areas of the GS-1′-oxymyristicin calibration curve thus obtained at a wavelength of 212 nm. The gradient for analysis of the metabolite consisted of a mixture of ACN and ultrapure water containing 0.1 % (v/v) TFA. The flow rate was 0.6 ml/min, The gradient started with 10 % ACN, increased to 30 % ACN over 2.5 min, after which ACN was increased to 80 % over 0.5 min, kept at 80 % for 0.5 min, followed by a decrease to 10 % over 0.5 min, and finally kept at 10 % for 0.5 min.

[4] = Oxidation of 1′-hydroxymyristicin to 1′-oxomyristicin, human liver microsomes; assay type: in vitro ADME
Description: as §3, §4

[5] = Microsomal conversion of myristicin, human liver microsomes; assay type: in vitro ADME; conditions: for Vmax / In vitro catalytic efficiency: formation of the metabolite from myristicin; for Vmax: NADPH, mean of three ± SD; for In vitro catalytic efficiency: Vmax/Km × 1000; for Scaled Vmax, in vivo / In vivo catalytic efficiency: from myristicin; for Scaled Vmax, in vivo: microsomal protein yield 32 mg/g liver; for In vivo catalytic efficiency: scaled Vmax/Km
Description: (§5) First, it was determined which organs are involved in the biotransformation of myristicin in rat and human. For this purpose, liver, kidney, lung, and small intestine microsomes from male Sprague–Dawley rat and pooled gender human were used. Incubations were performed by adding myristicin to incubation mixtures containing 1 mg/mL of the microsomal protein preparations and 3 mM NADPH in 0.2 M Tris–HCl (pH 7.4). After 1 min of pre-incubation at 37 °C, myristicin (final concentration, 1000 μM) was added from a 100 times concentrated stock solution in DMSO so that the final DMSO content was 1 % (v/v). Incubations were carried out for 30 min after which the reactions were terminated by adding 25 µl (0.25 times the incubation volume) of ice-cold ACN. Samples were centrifuged for 5 min at 13,000×g, and the supernatant was stored at −20 °C until UPLC analysis. As metabolism of myristicin was observed only in incubations with liver microsomes for male rats and pooled gender human, the determination of kinetic constants for the formation of microsomal metabolites was performed only for the liver fractions. Incubations to determine kinetic constants were performed following the conditions described above using final concentrations of myristicin from 25 to 1000 μM for rat and human liver. In all incubations, the final concentration of DMSO, in which myristicin was dissolved, was kept at 1 % (v/v). The formation of different microsomal metabolites was linear with time and microsomal protein concentration under the conditions described. Blank incubations were performed in the absence of the cofactor NADPH. All incubations were performed in triplicate.
(§6) Secondary metabolism of the relevant 1′-hydroxy metabolite of myristicin was taken into account by determining the kinetic constants for its conversion in (a) glucuronidation, (b) sulfation, and (c) oxidation, again under conditions that allowed adequate definition of kinetic constants and with <10 % substrate conversion. Incubation samples were subjected to UPLC analysis that was performed as described previously (Punt et al. [2008]). Identification was achieved by comparing the UV spectra of the formed metabolites to the spectra of the synthesized 1′-hydroxymyristicin and 1′-oxomyristicin reference standards. Quantification of all formed metabolites was done by comparing the peak areas to those of calibration curves of the corresponding reference compounds, determined using UPLC with photodiode array detection (UPLC-PDA). The UPLC system was composed of a Waters (Waters, Milford, MA) Acquity solvent manager, sample manager, and photodiode array detector, equipped with Water Acquity UPLC BEH C18 column.
(§7) The gradient for analysis of microsomal metabolites was performed with 100 % ACN and ultrapure water containing 0.1 % (v/v) TFA. The flow rate was 0.6 ml/min. The gradient started at 10 % ACN, increased to 50 % ACN over 4 min, increased to 80 % over 0.5 min, followed by decrease to 10 % ACN over 0.5 min, and finally kept at 10 % for 1 min.

[6] = Microsomal conversion of myristicin, male rat liver microsomes; assay type: in vitro ADME; conditions: for Vmax / In vitro catalytic efficiency: formation of the metabolite from myristicin; for Vmax: NADPH, mean of three ± SD; for In vitro catalytic efficiency: Vmax/Km × 1000; for Scaled Vmax, in vivo / In vivo catalytic efficiency: from myristicin; for Scaled Vmax, in vivo: microsomal protein yield 35 mg/g liver; for In vivo catalytic efficiency: scaled Vmax/Km
Description: as §5, §6, §7

DNA = conditions: ref Zhou et al. [2007a]; Kobets et al. [2016]; Phillips et al. [1984]; Randerath et al. [1984]; cited from earlier work
[7] = system: freshly isolated rat hepatocytes in primary culture; conditions: 10^−6 to 10^−3 M; ref Howes et al. [1990]; cited from earlier work
[8] = 1′-hydroxymyristicin to its glucuronide, S9, UDPGA
[9] = 1′-hydroxymyristicin to its glucuronide, Vmax/Km
[10] = glucuronidation of 1′-hydroxymyristicin, S9 protein yield 143 mg/g liver
[11] = glucuronidation of 1′-hydroxymyristicin, scaled Vmax/Km
[12] = 1′-hydroxymyristicin to 1′-oxomyristicin, Vmax/Km
[13] = 1′-hydroxymyristicin to 1′-oxomyristicin, microsomes, NAD+, GSH trapping
[14] = oxidation of 1′-hydroxymyristicin, scaled Vmax/Km

C=CC(OC1OC(C(=O)O)C(O)C(O)C1O)c1cc(OC)c2c(c1)OCO2 (stereo not shown) [1′-Hydroxymyristicin glucuronide, 1′-hydroxymyristicin glucuronide]
Vmax [1, 8]: 8.6 ± 2.0 nmol min^−1 (mg microsomal or S9 protein)^−1 | In vitro catalytic efficiency [1, 9]: 10.287 μl min^−1 (mg microsomal or S9 protein)^−1 | Scaled Vmax, in vivo [1, 10]: 73.788 μmol/h/g tissue | In vivo catalytic efficiency [1, 11]: 0.0883 ml/h/g tissue | Km at 30 min ([1]; male, Sprague-Dawley, rat, pH 7.4): 836 ± 336 µM | Vmax [2, 8]: 0.08 ± 0.03 nmol min^−1 (mg microsomal or S9 protein)^−1 | In vitro catalytic efficiency [2, 9]: 0.025 μl min^−1 (mg microsomal or S9 protein)^−1 | Km at 180 min ([2]; both sexes, human, pH 7.4): 3140 ± 2430 µM | Scaled Vmax, in vivo [2, 10]: 0.6864 μmol/h/g tissue | In vivo catalytic efficiency [2, 11]: 0.0002 ml/h/g tissue

C=CC(=O)c1cc(OC)c2c(c1)OCO2 [1′-Oxomyristicin, 1′-oxomyristicin]
In vitro catalytic efficiency [3, 12]: 7.369 μl min^−1 (mg microsomal or S9 protein)^−1 | Vmax [3, 13]: 43.64 ± 20.9 nmol min^−1 (mg microsomal or S9 protein)^−1 | Scaled Vmax, in vivo ([3]; oxidation of 1′-hydroxymyristicin, microsomal protein yield 35 mg/g liver): 91.644 μmol/h/g tissue | In vivo catalytic efficiency [3, 14]: 0.0155 ml/h/g tissue | In vitro catalytic efficiency [4, 12]: 9.864 μl min^−1 (mg microsomal or S9 protein)^−1 | Vmax [4, 13]: 32 ± 14 nmol min^−1 (mg microsomal or S9 protein)^−1 | Scaled Vmax, in vivo ([4]; oxidation of 1′-hydroxymyristicin, microsomal protein yield 32 mg/g liver): 61.44 μmol/h/g tissue | In vivo catalytic efficiency [4, 14]: 0.0189 ml/h/g tissue

COc1cc(CC(O)CO)cc2c1OCO2 (stereo not shown) [2′,3′-Dihydroxymyristicin]
Vmax [5]: 0.08 ± 0.01 nmol min^−1 (mg microsomal or S9 protein)^−1 | In vitro catalytic efficiency [5]: 2.424 μl min^−1 (mg microsomal or S9 protein)^−1 | Scaled Vmax, in vivo [5]: 0.154 μmol/h/g tissue | In vivo catalytic efficiency [5]: 0.0047 ml/h/g tissue | Vmax [6]: 0.44 ± 0.08 nmol min^−1 (mg microsomal or S9 protein)^−1 | In vitro catalytic efficiency [6]: 27.5 μl min^−1 (mg microsomal or S9 protein)^−1 | Scaled Vmax, in vivo [6]: 0.924 μmol/h/g tissue | In vivo catalytic efficiency [6]: 0.0578 ml/h/g tissue

COc1cc(/C=C/CO)cc2c1OCO2 [3′-Hydroxymyristicin, 3′-hydroxymyristicin]
Vmax [5]: 0.29 ± 0.14 nmol min^−1 (mg microsomal or S9 protein)^−1 | In vitro catalytic efficiency [5]: 0.178 μl min^−1 (mg microsomal or S9 protein)^−1 | Scaled Vmax, in vivo [5]: 0.557 μmol/h/g tissue | In vivo catalytic efficiency [5]: 0.0003 ml/h/g tissue | Vmax [6]: 0.47 ± 0.09 nmol min^−1 (mg microsomal or S9 protein)^−1 | In vitro catalytic efficiency [6]: 5.663 μl min^−1 (mg microsomal or S9 protein)^−1 | Scaled Vmax, in vivo [6]: 0.987 μmol/h/g tissue | In vivo catalytic efficiency [6]: 0.0119 ml/h/g tissue

C=CCc1ccc(OC)cc1 [estragole]
DNA adduct formation, result (DNA): positive results

C=CCc1ccc(OC)c(OC)c1 [methyleugenol]
DNA adduct formation, result (DNA): positive results | unscheduled DNA synthesis (UDS) [7]: induced unscheduled DNA synthesis (UDS)
